Where two headings read alike, the source gives them in different places.
Experiments:
[1] = Equilibrium solubility in simulated intestinal fluid, dual level DoE, fed arm; format: physicochemical; settings: for statistical significance of DoE factor BS:PL on equilibrium solubility / statistical significance of DoE factor bile salt on equilibrium solubility / statistical significance of DoE factor cholesterol on equilibrium solubility / statistical significance of DoE factor lecithin on equilibrium solubility / statistical significance of DoE factor monoglyceride on equilibrium solubility / statistical significance of DoE factor pH on equilibrium solubility / statistical significance of DoE factor sodium oleate on equilibrium solubility: fed, current study (Figure 3)
From the text: (§1) For each media parameter (bile salt, lecithin, sodium oleate, monoglyceride, cholesterol, pH and BS: PL ratio) lower and upper limit concentration values for fasted and fed states were defined, Table 1. Using Minitab 17.2.1 and a custom experimental design, a 1/16 of the full factorial DoE with the seven factors and two levels (lower and upper limits) was constructed (8 experiments around the upper and lower levels plus two center points) separately for the fasted and the fed states. These two tables were then applied as an input for a factorial custom design of experiment which combined the fasted and fed using all 20 data points to provide an overall analysis. The study therefore consists of three arms, two smaller (10 data point) fasted and fed arms, which are then merged into a larger (20 data point) combined arm.
(§2) When designing and analyzing the DoE, only a factor’s main effects and 2 way interactions have been considered and 3 way interactions or more were not included. For each DoE the magnitude for each factor’s effect on equilibrium solubility was determined by the standardized effect value for all of the individual factors and the significant 2-way interactions. This value was used to articulate whether these factors are increasing or decreasing drug solubility.
(§3) The solution was prepared by the addition of an excess amount (above the estimated solubility) of solid for each compound investigated to a centrifuge tube (15 mL Corning Centristar cap, polypropylene RNase/DNase free, nonpyrogenic) followed by the addition of each component of the simulated intestinal fluid media according to the run order generated by the DoE. After all of the media components were added, pH was adjusted to 5, 6, or 7 according to the run order using 0.1 M HCl or 0.1 M KOH and tubes were capped and placed on an orbital shaker (OS 5 basic Yellowline, IKA, Germany) for 1 h after which the pH was readjusted if required. The 20 different tubes were then shaken in a tube rotator for 24 h at 40 rpm at 37 °C to simulate intestinal fluid conditions. After 24 h, a 1 mL amount was taken from each of the 20 tubes and transferred to a 1.5 mL Eppendorf tube then centrifuged at 15 000 rpm for 5 min. Following centrifugation 0.5 mL of the supernatant solution was transferred to an HPLC vial to analyze drug solubility using HPLC (Table 4).

[2] = Statistical comparison of equilibrium solubility data sets (Mann-Whitney test / two-sample t-test); format: physicochemical; settings: for statistical comparison of fasted against fed equilibrium solubility: current dual level DoE, where significant, fasted solubility lower than fed; for statistical comparison of dual level fasted with published fasted equilibrium solubility: current fasted arm vs published fasted DoE; for statistical comparison of dual level fed with published fed equilibrium solubility: current fed arm vs published fed DoE
From the text: The Kolmogorov normality test was used in Minitab to assess the normality distribution of each data set. A Mann–Whitney test was used to evaluate the median between two data sets (not normally distributed) and the two-sample t-test was used to evaluate the mean of two data sets (normally distributed).

[3] = set-up: method as in ref 14, Figure 2; settings: fed, published; Figure 2; cited from earlier work
[4] = Equilibrium solubility in simulated intestinal fluid, dual level DoE, combined fasted and fed arm; format: physicochemical; settings: combined arm; for significance of sodium oleate for solubility: Figure 4, significance ±2, positive solubility impact
From the text: as §1, §2, §3

[5] = set-up: method as in ref 13, Figure 2; settings: fasted, published; Figure 2; cited from earlier work
[6] = Equilibrium solubility in simulated intestinal fluid, dual level DoE, fasted arm; format: physicochemical; settings: for direction of monoglyceride effect on solubility (standardized effect): fasted arm, Figure 3; for statistical significance of DoE factor BS:PL on equilibrium solubility / statistical significance of DoE factor bile salt on equilibrium solubility / statistical significance of DoE factor cholesterol on equilibrium solubility / statistical significance of DoE factor lecithin on equilibrium solubility / statistical significance of DoE factor monoglyceride on equilibrium solubility / statistical significance of DoE factor pH on equilibrium solubility / statistical significance of DoE factor sodium oleate on equilibrium solubility: fasted, current study (Figure 3); for significant DoE factors influencing solubility: fasted and fed study arms together (14 possible values per drug), significance ±4
From the text: as §1, §2, §3

| Compound | statistical significance of DoE factor BS:PL on equilibrium solubility [1] | statistical significance of DoE factor bile salt on equilibrium solubility [1] | statistical significance of DoE factor cholesterol on equilibrium solubility [1] | statistical significance of DoE factor lecithin on equilibrium solubility [1] | statistical significance of DoE factor monoglyceride on equilibrium solubility [1] | statistical significance of DoE factor pH on equilibrium solubility [1] | statistical significance of DoE factor sodium oleate on equilibrium solubility [1] | statistical comparison of fasted against fed equilibrium solubility [2] | statistical significance of DoE factor bile salt on equilibrium solubility [3] | statistical significance of DoE factor lecithin on equilibrium solubility [3] | statistical significance of DoE factor monoglyceride on equilibrium solubility [3] | statistical significance of DoE factor pH on equilibrium solubility [3] | statistical significance of DoE factor sodium oleate on equilibrium solubility [3] | statistical significance of DoE factor bile salt on equilibrium solubility [5] | statistical significance of DoE factor lecithin on equilibrium solubility [5] | statistical significance of DoE factor pH on equilibrium solubility [5] | statistical significance of DoE factor sodium oleate on equilibrium solubility [5] | statistical significance of DoE factor BS:PL on equilibrium solubility [6] | statistical significance of DoE factor bile salt on equilibrium solubility [6] | statistical significance of DoE factor cholesterol on equilibrium solubility [6] | other results |
| --- | --- | --- | --- | --- | --- | --- | --- | --- | --- | --- | --- | --- | --- | --- | --- | --- | --- | --- | --- | --- | --- |
| C[C@@H](O[C@H]1OCCN(Cc2n[nH]c(=O)[nH]2)[C@H]1c1ccc(F)cc1)c1cc(C(F)(F)F)cc(C(F)(F)F)c1 [aprepitant] | NS ^e | NS ^e ^g | NS ^e | NS ^e ^g | NS ^e | NS ^e ^g | NS ^e ^g | no statistically significant difference | S ^d ^g | S ^d ^g | NS ^e | S ^d ^g | S ^d ^g | S ^d ^g | NS ^e ^g | S ^d ^g | S ^d | NS ^e | NS ^e ^g | NS ^e | statistical comparison of dual level fasted with published fasted equilibrium solubility [2]: significantly different; statistical comparison of dual level fed with published fed equilibrium solubility [2]: significantly different; significance of lecithin for solubility ([4]; Figure 4, significance ±2): significant; significance of sodium oleate for solubility [4]: significant; direction of monoglyceride effect on solubility (standardized effect) [6]: positively impacts; statistical significance of DoE factor lecithin on equilibrium solubility [6]: S ^d ^g; statistical significance of DoE factor monoglyceride on equilibrium solubility [6]: S ^d; statistical significance of DoE factor pH on equilibrium solubility [6]: NS ^e ^g; statistical significance of DoE factor sodium oleate on equilibrium solubility [6]: S ^d |
| COc1ccccc1OCCNCC(O)COc1cccc2[nH]c3ccccc3c12 (stereo not shown) [carvedilol] | NS ^e | NS ^e ^g | NS ^e | NS ^e | NS ^e ^g | NS ^e ^g | NS ^e ^g | significant difference | S ^d ^g | NS ^e | S ^d ^g | S ^d ^g | S ^d ^g | S ^d ^g | S ^d ^g | S ^d ^g | S ^d ^g | NS ^e | NS ^e ^g | NS ^e | statistical comparison of dual level fed with published fed equilibrium solubility [2]: significantly different; significance of sodium oleate for solubility [4]: significant; significant DoE factors influencing solubility [6]: no significant factors; statistical significance of DoE factor lecithin on equilibrium solubility [6]: NS ^e ^g; statistical significance of DoE factor monoglyceride on equilibrium solubility [6]: NS ^e; statistical significance of DoE factor pH on equilibrium solubility [6]: NS ^e ^g; statistical significance of DoE factor sodium oleate on equilibrium solubility [6]: NS ^e ^g |
| CCOC(=O)C1=C(C)NC(C)=C(C(=O)OC)C1c1cccc(Cl)c1Cl (stereo not shown) [felodipine] | NS ^e | S ^d | NS ^e | S ^d | S ^d ^g | NS ^e ^g | S ^d | significant difference | S ^d | S ^d | NS ^e ^g | S ^d ^g | S ^d | S ^d ^g | S ^d | S ^d | S ^d | NS ^e | NS ^e ^g | NS ^e | direction of monoglyceride effect on solubility (standardized effect) ([1]; fed arm, Figure 3): positive effect; statistical comparison of dual level fasted with published fasted equilibrium solubility [2]: significantly different; significance of bile salt for solubility ([4]; Figure 4, significance ±2): significant; significance of cholesterol for solubility ([4]; Figure 4, significance ±2): significant; significant DoE factors influencing solubility [6]: eight out of a possible 14; direction of monoglyceride effect on solubility (standardized effect) [6]: positive effect; statistical significance of DoE factor lecithin on equilibrium solubility [6]: S ^d; statistical significance of DoE factor monoglyceride on equilibrium solubility [6]: S ^d; statistical significance of DoE factor pH on equilibrium solubility [6]: S ^d; statistical significance of DoE factor sodium oleate on equilibrium solubility [6]: S ^d |
| COc1ccc2c(c1)c(CC(=O)O)c(C)n2C(=O)c1ccc(Cl)cc1 [indomethacin] | NS ^e | NS ^e ^g | NS ^e | NS ^e | NS ^e | S ^d | NS ^e ^g | no statistically significant difference | S ^d ^g | NS ^e | NS ^e | S ^d | S ^d ^g | S ^d ^g | NS ^e | S ^d | S ^d ^g | NS ^e | NS ^e ^g | NS ^e | significance of pH for solubility ([4]; Figure 4, significance ±2): significant; significant two way factor interactions on solubility ([4]; eight two way interactions, Figure 4): no significant interactions; statistical significance of DoE factor lecithin on equilibrium solubility [6]: NS ^e; statistical significance of DoE factor monoglyceride on equilibrium solubility [6]: NS ^e; statistical significance of DoE factor pH on equilibrium solubility [6]: S ^d; statistical significance of DoE factor sodium oleate on equilibrium solubility [6]: NS ^e ^g |
